Our source for the Intrinsic activity and Ki values is ChEMBL document CHEMBL1131148, “Synthesis and modeling studies of a potent conformationally rigid muscarinic agonist: 1-azabicyclo[2.2.1]heptanespirofuranone” (J Med Chem, 1998).

Each structure is given as a SMILES string.

The species entered for one assay is Rattus norvegicus. As to the kind of experiment: Stimulation of phosphatidyl inositol(PI) hydrolysis as compared to that of carbachol, was determined in rat hippocampal slices. The assay is classed as functional, Hippocampus.
The target in assay [1] is Muscarinic acetylcholine receptor. As to the kind of experiment: Binding affinity against Muscarinic acetylcholine receptor using [3H]-OXO-M as the radioligand. The class given is protein assay, Rattus norvegicus.

As a reminder, the Ki is a measure of affinity in units of concentration, obtained from inhibition or displacement. The low end stands for higher affinity, the high end for lower affinity. `C[C@H]1OCC2(CN3CCC2C3)O1` (stereo not given in full): in the assay listed under Rattus norvegicus, the Intrinsic activity was determined as 75%. In assay [1], this compound showed a Ki of 14 nM.

For `CCC[C@H]1O[C@@]2(CC1=O)CN1CCC2C1` (stereo not given in full), the Intrinsic activity in the assay filed under Rattus norvegicus is recorded as 0%. In assay [1], the Ki was 2 nM.

On to `CC[C@H]1O[C@@]2(CC1=O)CN1CCC2C1` (stereo not given in full), for which the Intrinsic activity in the assay filed under Rattus norvegicus is 39%. Besides, the Ki in assay [1] was determined as 3.7 nM.

In the case of `CC[C@@H]1O[C@@]2(CC1=O)CN1CCC2C1` (stereo not given in full), the Intrinsic activity in the assay filed under Rattus norvegicus is reported as 47%. In addition, in assay [1], the Ki amounted to 0.4 nM.

`CN1O[C@@]2(CC1=O)CN1CCC2C1` (stereo not given in full): the Intrinsic activity in the assay listed under Rattus norvegicus came out at 22.6%. Besides, the Ki in assay [1] was determined as 4 nM.

With `C[C@@H]1O[C@@]2(CC1=O)CN1CCC2C1` (stereo not given in full), the Intrinsic activity in the assay listed under Rattus norvegicus stood at 81%. Moreover, in assay [1], the Ki worked out at 0.8 nM.

As to `CCC[C@@H]1O[C@@]2(CC1=O)CN1CCC2C1` (stereo not given in full), the Intrinsic activity in the assay listed under Rattus norvegicus amounted to 0%. Moreover, the Ki in assay [1] turned out to be 2 nM.

Take `CC1OC2(CCN(C)CC2)CC1=O` (stereo not given): in the assay filed under Rattus norvegicus, the Intrinsic activity is 51%. For the same compound, the Ki in assay [1] is 6.7 nM.

As for `CC1O[C@@]2(CC1=O)CN1CCC2CC1` (stereo not given in full), in the assay filed under Rattus norvegicus, the Intrinsic activity amounted to 9%.

As to `Cc1noc(C2CN3CCC2C3)n1` (stereo not given), the Intrinsic activity in the assay filed under Rattus norvegicus amounted to 106%. The compound also had a Ki in assay [1] of 0.2 nM.

Take `C[N+](C)(C)CCOC(N)=O.[Cl-]` [CARBACHOL]: in the assay filed under Rattus norvegicus, the Intrinsic activity turned out to be 100%.
